Consider 5 compounds from patent US8455522B2, “Benzoxazolone derivatives as aldosterone synthase inhibitors” (Novartis AG, priority 2009, dated 2013).

The target of test [1] is T1, aldosterone synthase (Homo sapiens, UniProt P19099).
T1 construct: host or cells: NCI-H295R
T1 sequence (P19099 25-503): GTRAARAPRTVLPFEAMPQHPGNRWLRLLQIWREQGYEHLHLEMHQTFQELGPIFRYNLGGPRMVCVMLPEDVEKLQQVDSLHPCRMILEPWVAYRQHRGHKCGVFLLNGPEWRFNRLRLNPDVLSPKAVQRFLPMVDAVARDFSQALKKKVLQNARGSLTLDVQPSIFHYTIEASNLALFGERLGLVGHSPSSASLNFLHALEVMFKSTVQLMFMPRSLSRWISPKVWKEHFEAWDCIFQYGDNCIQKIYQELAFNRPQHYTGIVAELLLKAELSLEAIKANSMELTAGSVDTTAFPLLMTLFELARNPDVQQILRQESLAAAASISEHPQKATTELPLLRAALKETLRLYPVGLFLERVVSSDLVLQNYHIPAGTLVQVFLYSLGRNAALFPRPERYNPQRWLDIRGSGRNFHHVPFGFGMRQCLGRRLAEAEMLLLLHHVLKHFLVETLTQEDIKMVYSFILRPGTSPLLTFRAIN
Kind of test: Aldosterone cell secretion in NCI-H295R cells (aldosterone synthase inhibition, SPA). Format: cell-based. The settings on record: human adrenocortical carcinoma NCI-H295R cells, 1 μM Ang II, 24 hr. The text has this:
In particular, the aldosterone synthase inhibitory activities in vitro can be determined by the following assay.
Human adrenocortical carcinoma NCI-H295R cell line was obtained from American Type Culture Collection (Manassas, Va.). Insulin/transferrin/selenium (ITS)-A supplement (100×). DMEM/F-12, antibiotic/antimycotic (100×), and fetal bovine serum (FBS) were purchased from Invitrogen (Carlsbad, Calif.). Anti-mouse PVT scintillation proximity assay (SPA) beads and NBS 96-well plates were obtained from GE Health Sciences (Piscataway, N.J.) and Corning (Acton, Mass.), respectively. Solid black 96-well flat bottom plates were purchased from Costar (Corning, N.Y.). Aldosterone and angiotensin (Ang II) were purchased from Sigma (St. Louis, Mo.). D-[1,2,6,7-^3H(N)]aldosterone was acquired from PerkinElmer (Boston, Mass.). Nu-serum was a product of BD Biosciences (Franklin Lakes, N.J.). The NADPH regenerating system, dibenzylfluorescein (DBF), and human aromatase Supersomes® were obtained from Gentest (Woburn, Mass.).
For in vitro measurement of aldosterone activity, human adrenocortical carcinoma NCI-H295R cells are seeded in NBS 96-well plates at a density of 25,000 cells/well in 100 μl of a growth medium containing DMEM/F12 supplemented with 10% FCS, 2.5% Nu-serum, 1 μg ITS/ml, and 1× antibiotic/antimycotic. The medium is changed after culturing for 3 days at 37° C. under an atmosphere of 5% CO2/95% air. On the following day, cells are rinsed with 100 μl of phosphate-buffered saline (PBS) and incubated with 100 μl of treatment medium containing 1 μM Ang II and a compound at different concentrations in quadruplicate wells at 37° C. for 24 hr. At the end of incubation, 50 μl of medium is withdrawn from each well for measurement of aldosterone production by an SPA using mouse anti-aldosterone monoclonal antibodies.
Measurement of aldosterone activity can also be performed using a 96-well plate format. Each test sample is incubated with 0.02 μCi of D-[1,2,6,7-^3H(N)]aldosterone and 0.3 μg of anti-aldosterone antibody in PBS containing 0.1% Triton X-100, 0.1% bovine serum albumin, and 12% glycerol in a total volume of 200 μl at room temperature for 1 hr. Anti-mouse PVT SPA beads (50 μl) are then added to each well and incubated overnight at room temperature prior to counting in a Microbeta plate counter. The amount of aldosterone in each sample is calculated by comparing with a standard curve generated using known quantities of the hormone.
(§1) Inhibition of the release of certain steroids can be used as a measure of the respective enzyme inhibition by the added test compounds. The dose-dependent inhibition of enzymic activity by a compound is calculated by means of an inhibition plot which is characterized by an IC50.
The IC50 values for active test compounds are ascertained by a simple linear regression analysis in order to construct inhibition plots without data weighting. The inhibition plot is calculated by fitting a 4-parameter logistic function to the raw data points using the least squares method. The equation of the 4-parameter logistic function is calculated as follows: Y=(d−a)/((1+(x/c)b))+a, where: a=minimum data level, b=gradient, I […], d=maximum data level, x=inhibitor concentration.
The inhibition activity of aldosterone production can also be expressed in percentage inhibition (% inhibition) at a given concentration (e.g. % inhibition at 1 μM), which is the aldosterone level when the cell is treated with the given concentration of a compound of this invention (e.g. concentration of 1 μM) versus the aldosterone excretion when cell is free of the compound of the invention: % inhibition aldosterone production=[(Y−X)/Y]×100 wherein X is the level of aldosterone when the cell is treated with a compound of Formula I; and Y is the level of aldosterone when the cell is free of compound of Formula I.

Test [2] addresses T2, CYP11B1 (Homo sapiens, UniProt P15538).
T2 construct: the NCI-H295R cells have Cyp11 B1 (steroid 11 β-hydroxylase); host or cells: NCI-H295R
T2 sequence (P15538 25-503): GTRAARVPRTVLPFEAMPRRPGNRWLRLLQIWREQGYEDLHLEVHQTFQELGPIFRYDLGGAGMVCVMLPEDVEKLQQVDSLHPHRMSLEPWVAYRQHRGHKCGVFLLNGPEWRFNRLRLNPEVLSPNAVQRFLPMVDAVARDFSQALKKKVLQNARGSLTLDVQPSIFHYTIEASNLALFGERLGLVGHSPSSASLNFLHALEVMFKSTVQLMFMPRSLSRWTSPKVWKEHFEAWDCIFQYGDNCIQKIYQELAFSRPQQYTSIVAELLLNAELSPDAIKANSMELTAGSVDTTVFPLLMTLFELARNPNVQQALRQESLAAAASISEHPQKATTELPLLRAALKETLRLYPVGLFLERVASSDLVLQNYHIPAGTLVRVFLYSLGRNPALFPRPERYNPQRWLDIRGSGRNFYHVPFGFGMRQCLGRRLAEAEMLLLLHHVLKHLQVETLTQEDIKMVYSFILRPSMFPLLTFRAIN
Briefly: Cortisol cell secretion in NCI-H295R cells (CYP11B1 activity). Format: cell-based. The note with it: NCI-H295R, compound at 1 μM, read-out: Cortisol cell secretion (% Inhib. @ 1 μM).
Text: The in vitro inhibitory activities for CYP1B1 can be determined by the following assay.
The cell line NCI-H295R was originally isolated from an adrenocortical carcinoma and has been characterized in the literature through the stimulable secretion of steroid hormones and the presence of the enzymes essential for steroidogenesis. Thus, the NCI-H295R cells have Cyp11 B1 (steroid 11 β-hydroxylase). The cells show the physiological property of zonally undifferentiated human foetal adrenocortical cells which, however, have the capacity to produce the steroid hormones which are formed in the three, phenotypically distinguishable zones in the adult adrenal cortex.
The NCI-H295R cells (American Type Culture Collection, ATCC, Rockville, Md., USA) are grown in Dulbeoco's Modified Eagle'Ham F-12 Medium (DME/F12), which has been supplemented with Ulroser SF Serum (Soprachem, Geigy-Saint-Christophe, France), insulin, transferrin, selenite (I-T-S, Becton Dickinson Biosiences, Franklin lakes. NJ, USA) and antibiotics in 75 cm^2 cell culture vessels at 37° C. and in a 95% air-5% carbon dioxide atmosphere. The cells are subsequently transferred for colony formation into a 24-well incubation vessel. They are cultivated there in DME/F12 medium, which is now supplemented with 0.1% bovine serum instead of Ultroser SF for 24 hours. The experiment is initiated by cultivating the cells in DME/F12 medium which is supplemented with 0.1% bovine serum albumin and test compound, in the presence or absence of cell stimulants, for 72 hours. The test substance is added in a concentration range from 0.2 nanomolar to […]. Cell stimulants which can be used are angiotensin II (1 D or 100 nanomolar), potassium ions (16 millimolar), forskolin (10 micromolar) or a combination of two stimulants.
The excretion of aldosterone, cortisol, corticosterone and estradiol/estrone into the culture medium can be detected and quantified by commercially available, specific monoclonal antibodies in radioimmunoassays in accordance with the manufacturer's instructions.
as §1
The inhibition activity of cortisol production (CYP11B1 activity) can also be expressed in percentage inhibition (% inhibition) at a given concentration (e.g. % inhibition at 1 μM), which is the cortisol level when cell is treated with the given concentration of a compound of the invention (e.g. concentration of 1 μM) versus the cortisol excretion when cell is free of the compound of the invention. % inhibition cortisol production=[(Y′−X′)/Y′]×100 wherein X′ is the level of cortisol when the cell is treated with a compound of Formula I; and Y′ is the level of cortisol when the cell is free of compound of Formula I.

Turning to `Cn1c(=O)oc2ccc(-c3cncc(CCO)c3)cc21` [Example 18, 5-(5-(2-hydroxyethyl)pyridin-3-yl)-3-methylbenzo[d]oxazol-2(3H)-one], the IC50 in test [1] is 34 nM. Besides, in test [2], the inhibition at 1 µM was determined as 57%.

The compound `Cn1c(=O)oc2ccc(-c3cncc(C(O)C(F)(F)F)c3)cc21` (stereo not shown) [Example 19, 3-methyl-5-(5-(2,2,2-trifluoro-1-hydroxyethyl)pyridin-3-yl)benzo[d]oxazol-2(3H)-one] registered an IC50 in test [1] of 1.4 nM. Further, in test [2], the inhibition at 1 µM was determined as 95%.

Compound `CN(c1cncc(-c2ccc3oc(=O)n(C)c3c2)c1)S(=O)(=O)C1CC1` [Example 21, N-methyl-N-(5-(3-methyl-2-oxo-2,3-dihydrobenzo[d]oxazol-5-yl)pyridin-3-yl)cyclopropanesulfonamide] yielded an IC50 in test [1] of 68 nM. In addition, the inhibition at 1 µM in test [2] is 65.5%.

In the case of `CCCS(=O)(=O)Nc1cncc(-c2ccc3oc(=O)n(C)c3c2)c1` [Example 28, N-(5-(3-methyl-2-oxo-2,3-dihydrobenzo[d]oxazol-5-yl)pyridin-3-yl)propane-1-sulfonamide], the IC50 in test [1] came to 154 nM. Further, the inhibition at 1 µM in test [2] was 30%.

Compound `Cn1c(=O)oc2ccc(-c3cncc(F)c3CO)cc21` [Example 36, 5-(5-fluoro-4-(hydroxymethyl)pyridin-3-yl)-3-methylbenzo[d]oxazol-2(3H)-one] showed an IC50 in test [1] of 144 nM. For the same compound, in test [2], the inhibition at 1 µM was found to be 13%.
